Laboratory results as given in paper PMC6562117, “The role of the tyrosine kinase Wzc (Sll0923) and the phosphatase Wzb (Slr0328) in the production of extracellular polymeric substances (EPS) by Synechocystis PCC 6803” (MicrobiologyOpen, 2019).

How the values were obtained:
Wzc (Sll0923); His6-Wzc = biological target: T1, Wzc (Sll0923); His6-Wzc (Synechocystis sp. PCC 6803, UniProt P72877); experiment: ATP consumption by luciferase bioluminescence (ENLITEN); assay type: biochemical; settings: 25 mM Tris-HCl pH 7.0, 1 mM DTT, 5 mM MgCl2, 30 C, 45 min; heat-inactivated Wzc as control
T1 construct: gene epsB

Wzb (Slr0328); His6-Wzb = biological target: T2, Wzb (Slr0328); His6-Wzb (Synechocystis sp. PCC 6803, UniProt Q55535); experiment: continuous p-nitrophenol release at […] nm; assay type: biochemical; settings: 10 mM pNPP, 100 mM sodium citrate pH 6.5, 1 mM EDTA, 0.1% beta-mercaptoethanol, 30 C
T2 construct: one monomer in the asymmetric unit
T2 sequence (Q55535 whole entry): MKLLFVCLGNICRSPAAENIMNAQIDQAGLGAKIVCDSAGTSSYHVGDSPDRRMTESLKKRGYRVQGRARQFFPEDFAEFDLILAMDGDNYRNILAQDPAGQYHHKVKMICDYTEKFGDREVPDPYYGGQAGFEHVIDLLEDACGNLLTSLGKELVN

T1 sequence (P72877 entry or part of it): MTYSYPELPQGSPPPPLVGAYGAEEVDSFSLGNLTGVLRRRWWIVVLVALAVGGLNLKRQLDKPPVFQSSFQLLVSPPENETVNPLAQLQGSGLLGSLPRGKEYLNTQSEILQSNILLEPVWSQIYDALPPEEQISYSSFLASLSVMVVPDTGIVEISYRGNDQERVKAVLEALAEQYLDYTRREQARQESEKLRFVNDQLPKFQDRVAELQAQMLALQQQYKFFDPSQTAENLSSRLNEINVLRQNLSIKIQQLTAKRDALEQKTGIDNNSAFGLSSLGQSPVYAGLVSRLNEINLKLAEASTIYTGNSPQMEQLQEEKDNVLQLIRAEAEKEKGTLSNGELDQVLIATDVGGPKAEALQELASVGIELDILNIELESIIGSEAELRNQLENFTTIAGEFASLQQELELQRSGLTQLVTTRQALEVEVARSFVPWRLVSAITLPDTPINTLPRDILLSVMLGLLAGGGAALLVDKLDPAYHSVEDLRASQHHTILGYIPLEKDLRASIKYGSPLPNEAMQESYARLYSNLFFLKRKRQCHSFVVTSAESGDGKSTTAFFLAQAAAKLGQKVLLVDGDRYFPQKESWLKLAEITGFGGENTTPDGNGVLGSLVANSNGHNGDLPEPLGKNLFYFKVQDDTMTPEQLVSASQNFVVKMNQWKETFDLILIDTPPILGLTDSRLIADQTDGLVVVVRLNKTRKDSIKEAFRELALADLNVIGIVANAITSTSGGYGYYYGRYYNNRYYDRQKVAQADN

Row | SMILES | ATP consumption by luciferase bioluminescence (ENLITEN) (Wzc (Sll0923); His6-Wzc) | continuous p-nitrophenol release at 405 nm (Wzb (Slr0328); His6-Wzb)
1 | Nc1ncnc2c1ncn2[C@@H]1O[C@H](COP(=O)(O)OP(=O)(O)OP(=O)(O)O)[C@@H](O)[C@H]1O [ATP] | Wzc is capable of ATP binding and hydrolysis | 
2 | O=[N+]([O-])c1ccc(OP(=O)(O)O)cc1 [p-nitrophenyl phosphate] |  | we first used a p‐nitrophenyl phosphate hydrolysis assay to confirm that Wzb functions as a phosphatase
